Where two headings read alike, the source gives them in different places.
Columns and labels:
[1] = system: Huh-7 hepatoma cell line; test: MTT cell viability assay, Huh-7; type: cell-based; settings: Homo sapiens, read-out: EC50 on cell viability, Huh-7 (Liver)
Protocol: (§1) Cell-based assays were performed using the described cell lines, grown in the appropriate Growth Mediums containing 10% fetal bovine serum and 1% penicillin-streptomycin. Cancer cells were plated at 15,000 cells/well in 96-well plates and allowed to attach overnight. […] Cell viability was determined after 72 hours incubation periods. To determine anti-proliferative effects of inhibitors, cellular proliferation was determined using the colorimetric MTT cell viability assay kit, as described by the manufacture (ATCC).

[2] = system: ACHN renal cell carcinoma cell line; test: MTT cell viability assay, ACHN; type: cell-based; settings: Homo sapiens, read-out: EC50 on cell viability, ACHN (Kidney)
Protocol: as §1

[3] = target: b-Raf (V600E) (Homo sapiens (Human), UniProt P15056, V600E); test: In vitro kinase inhibition assay (ADP-Glo), b-Raf (V600E); type: biochemical
Protocol: (§2) All measurements included background and control (vehicle only) luminescence readings.
(§3) The kinases Raf-1 and b-Raf (V600E), and their corresponding substrate, MEK1, and Full length recombinant CRAF kinase and its respective substrate, recombinant MEK1, were purchased from US Biological (Swampscott, Mass.). All assays were performed under identical conditions for the Raf isozymes: 10 nM Enzyme, 1 μM MEK1, 10 μM ATP, at 22° C. for 2 hours. […] IC50 values were obtained by determining the change in the ADP production (luminescence signal) at various inhibitor concentrations as compared to the control assay. Individual data sets were performed in duplicate and each IC50 was determined by the average and standard deviation of three separate experiments.

[4] = system: PC-3 prostate cancer cell line; test: MTT cell viability assay, PC-3; type: cell-based; settings: read-out: EC50 on cell viability, PC-3 (Prostate)
Protocol: (§4) Cell-based assays were performed using the described cell lines, grown in the appropriate Growth Mediums containing 10% fetal bovine serum and 1% penicillin-streptomycin. Cancer cells were plated at 15,000 cells/well in 96-well plates and allowed to attach overnight. Inhibitors were dissolved in DMSO and then diluted to concentrations ranging from 0.1-25 μM with a final DMSO concentration of 0.1%. Cell viability was determined after 72 hours incubation periods. To determine anti-proliferative effects of inhibitors, cellular proliferation was determined using the colorimetric MTT cell viability assay kit, as described by the manufacture (ATCC).

[5] = system: T47D breast cancer cell line; test: MTT cell viability assay, T47D; type: cell-based; settings: Homo sapiens, 72 hours incubation
Protocol: as §4

[6] = system: HepG2 hepatoma cell line; test: MTT cell viability assay, HepG2; type: cell-based; settings: for EC50: Homo sapiens, read-out: EC50 on cell viability, HepG2 (Liver)
Protocol: as §1

[7] = target: Raf-1 (Homo sapiens (Human), UniProt P04049); test: In vitro kinase inhibition assay (ADP-Glo), Raf-1; type: biochemical
Protocol: as §2, §3
as §3, with “Full” for “The kinases Raf-1 and b-Raf (V600E), and their corresponding substrate, MEK1, and Full”, “at” for “under identical conditions for the Raf isozymes:”, “CRAF,” for “Enzyme,”, “(luminescent” for “(luminescence”, “mean” for “average”

[8] = system: SKBR3 breast cancer cell line; test: MTT cell viability assay, SKBR3; type: cell-based; settings: Homo sapiens, read-out: EC50 on cell viability, SKBR3 (Breast)
Protocol: as §4

[9] = Pharmacokinetics after cassette oral administration to mice; settings: male, Swiss Webster, mouse, in vivo, 1 mg/kg
Protocol: Male Swiss Webster mice (10-week old, 30-35 g) were used for PK studies. […] Each blood sample was immediately transferred to a tube containing 50 μL of water containing 0.1% EDTA. After being mixed strongly on a Vortex for 1 min, all samples were stored at −80° C. until analysis. The extraction of sEHIs from blood was performed by a slight modification of a previous method. […] Torrance, Calif.) held at 50° C. […] The injection volume was 10 μL and the samples were kept at 4° C. in the auto sampler. Analytes were detected by negative mode electrospray ionizations tandem quadrupole trap mass spectrometry in multiple reaction-monitoring mode (MRM) on a Trap 4000 Mass Spectrometer (ABI, Milford, Mass.). The parameters of MS condition were the same as presented previously.

[10] = target: human sEH (Homo sapiens (Human), UniProt P34913); test: Inhibitory activity against human sEH; type: biochemical; settings: read-out: Human sEH IC50
[11] = Huh-7, MTT, 72 hours incubation
[12] = HepG2, MTT, 72 hours incubation
[13] = SK-BR-3, MTT, 72 hours incubation

human sEH, sequence (P34913 whole entry): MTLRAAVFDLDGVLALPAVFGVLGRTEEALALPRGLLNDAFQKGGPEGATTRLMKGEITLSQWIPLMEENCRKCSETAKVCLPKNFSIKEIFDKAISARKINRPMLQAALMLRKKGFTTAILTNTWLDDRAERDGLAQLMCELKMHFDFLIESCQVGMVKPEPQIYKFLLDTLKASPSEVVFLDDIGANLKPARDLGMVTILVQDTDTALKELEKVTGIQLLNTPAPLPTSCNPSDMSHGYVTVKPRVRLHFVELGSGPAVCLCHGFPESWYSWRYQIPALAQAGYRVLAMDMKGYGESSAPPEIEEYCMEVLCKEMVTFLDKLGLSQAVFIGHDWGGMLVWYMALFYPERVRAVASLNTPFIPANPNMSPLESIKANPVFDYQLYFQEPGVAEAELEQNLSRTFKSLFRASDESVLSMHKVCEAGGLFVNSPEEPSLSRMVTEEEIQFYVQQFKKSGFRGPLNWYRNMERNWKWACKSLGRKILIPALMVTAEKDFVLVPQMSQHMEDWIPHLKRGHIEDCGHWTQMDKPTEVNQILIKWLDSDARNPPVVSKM
Raf-1, sequence (P04049 whole entry): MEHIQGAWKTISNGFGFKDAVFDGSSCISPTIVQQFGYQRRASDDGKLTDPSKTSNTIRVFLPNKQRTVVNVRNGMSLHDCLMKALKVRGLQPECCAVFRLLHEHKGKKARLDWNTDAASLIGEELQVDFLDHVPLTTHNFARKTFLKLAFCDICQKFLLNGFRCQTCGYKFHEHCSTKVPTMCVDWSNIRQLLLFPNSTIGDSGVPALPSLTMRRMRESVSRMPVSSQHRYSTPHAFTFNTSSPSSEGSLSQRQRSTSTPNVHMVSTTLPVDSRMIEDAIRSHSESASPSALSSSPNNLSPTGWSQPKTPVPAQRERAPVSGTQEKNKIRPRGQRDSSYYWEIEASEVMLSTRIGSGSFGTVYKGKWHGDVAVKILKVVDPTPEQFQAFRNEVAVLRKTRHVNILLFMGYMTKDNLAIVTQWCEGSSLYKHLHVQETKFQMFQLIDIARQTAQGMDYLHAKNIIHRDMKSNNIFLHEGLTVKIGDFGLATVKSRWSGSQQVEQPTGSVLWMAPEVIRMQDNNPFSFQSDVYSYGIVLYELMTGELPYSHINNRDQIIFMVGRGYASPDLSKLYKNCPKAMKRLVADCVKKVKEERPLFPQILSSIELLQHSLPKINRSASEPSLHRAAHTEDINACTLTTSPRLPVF
b-Raf (V600E), sequence (P15056 whole entry V600E): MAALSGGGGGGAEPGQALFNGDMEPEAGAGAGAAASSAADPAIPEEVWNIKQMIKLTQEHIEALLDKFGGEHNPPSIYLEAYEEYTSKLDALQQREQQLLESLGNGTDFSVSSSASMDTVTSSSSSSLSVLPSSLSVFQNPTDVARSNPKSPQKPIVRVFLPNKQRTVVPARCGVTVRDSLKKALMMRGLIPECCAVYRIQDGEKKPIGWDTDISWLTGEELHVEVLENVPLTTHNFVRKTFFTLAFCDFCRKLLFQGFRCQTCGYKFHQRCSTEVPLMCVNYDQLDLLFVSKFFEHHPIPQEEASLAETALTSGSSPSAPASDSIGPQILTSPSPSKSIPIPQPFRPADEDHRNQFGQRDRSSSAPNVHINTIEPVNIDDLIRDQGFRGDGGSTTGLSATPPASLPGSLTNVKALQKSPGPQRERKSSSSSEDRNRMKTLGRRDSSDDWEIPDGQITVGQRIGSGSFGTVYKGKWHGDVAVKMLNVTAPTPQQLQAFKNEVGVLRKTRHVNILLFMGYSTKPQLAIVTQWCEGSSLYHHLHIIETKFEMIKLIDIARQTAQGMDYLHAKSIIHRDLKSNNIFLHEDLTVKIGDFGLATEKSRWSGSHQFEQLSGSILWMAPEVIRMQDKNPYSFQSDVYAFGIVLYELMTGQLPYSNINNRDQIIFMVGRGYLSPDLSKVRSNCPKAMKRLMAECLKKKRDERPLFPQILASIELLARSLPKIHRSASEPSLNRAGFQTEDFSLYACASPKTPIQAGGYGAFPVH

SMILES | EC50 [5] [µM] | EC50 [1, 11] [µM] | EC50 ([2]; MTT, 72 hours incubation) [µM] | EC50 ([4]; MTT, 72 hours incubation) [µM] | EC50 [6, 12] [µM] | IC50 [10] [µM] | EC50 [8, 13] [µM] | other results
CNC(=O)c1ccc(O[C@H]2CC[C@H](NC(=O)Nc3ccc(OC(F)(F)F)cc3)CC2)cc1 [Compound 2227, trans-N-Methyl-4-{4-[3-(4-trifluoromethoxy-phenyl)-ureido]-cyclohexyloxy}-benzamide] | > 25 |  |  |  |  |  |  | EC50 ([1]; Huh-7, 72 h): 5.5 µM; EC50 ([2]; 72 h): 6.5 µM; IC50 [3]: > 10 µM; EC50 ([4]; 72 h): 10 µM; EC50 ([6]; HepG2, 72 h): 7 µM; IC50 [7]: 0.34 ± 0.04 µM; EC50 ([8]; SK-BR-3, 72 h): > 25 µM
CNC(=O)c1cc(O[C@H]2CC[C@H](NC(=O)Nc3ccc(Cl)c(C(F)(F)F)c3)CC2)ccn1 [Compound 2278, trans-4-{4-[3-(4-chloro-3-trifluoromethyl-phenyl)-ureido]-cyclohexyloxy}-pyridine-2-carboxylic acid methylamide] | 5 | 8 | 7.5 | 7 | 7 | 0.0005 | 8 | AUC(0-t) [9]: 3 µM·h; Cmax [9]: 190 nM; Tmax [9]: 1.7 h; Effect on Hep G2 cell viability (dose dependence) ([6]; FIG. 2): more efficient than sunitinib; Effect on Hep G2 cell viability (comparison of inhibitors) ([6]; FIG. 3, at a concentration 2-fold smaller): more efficient than sunitinib; Effect on Hep G2 cell viability (dose dependence) ([6]; FIG. 4): more efficient than sunitinib
CNC(=O)c1ccc(O[C@H]2CC[C@H](NC(=O)NC34CC5CC(CC(C5)C3)C4)CC2)cc1 [Compound 2225, trans-4-[4-(3-adamantan-1-yl-ureido]-cyclohexyloxy)-N-methyl-benzamide] | 4.5 | 7 | 4.5 | 2 | 6 | 0.0005 | 7.5 | IC50 ([7]; 10 nM enzyme, 1 μM MEK1, 10 μM ATP, 22° C., 2 hours, read-out: Raf-1 IC50): > 10 µM
